From patent US20150174202A1, “Methods and Compositions for Modulating Beta Cell Proliferation” (The Board of Trustees of the Leland Stanford Junior …, priority 2011, published 2015)
Entries after “also recorded” stand apart in the source; their conditions may differ.

Experiments:
EZH2 = experiment: EZH2/EZH1 mRNA in cultured human islets (real-time RT-PCR); format: cell-based; settings: PDGF-AA 50 ng/ml, 2 days
Description: Total RNA from freshly isolated or cultured islets after indicated treatments were purified using the Absolutely RNA miniprep purification kit (Stratagene) according to the manufacturer's instructions. RNA concentration was measured with a RiboGreen RNA quantification assay (Invitrogen). One-step quantitative RT-PCR was performed and analysed using an ABI Prism 7300 detection system (Applied Biosystems) with TaqMan one-step RTPCR Master Mix Reagents and appropriate amounts (10-100 ng) of islet total RNA as the template. We calculated the ratio of mRNA for the gene of interest to the amount of internal control mRNA of peptidylprolyl isomerase A (cyclophilin A, PPIA), and then normalized the ratio for each gene to its median. For islet studies, human islets were isolated either at Pittsburgh University Medical Center or the University of Alabama, Birmingham. Eight independent human islet preparations from juvenile donors at the age of 8 months, 1.0, 1.5, 2, 3, 4, 5 and 6 years, and three adult islet preparations from donors at the age of 39, 48 and 56 years were used in this study. After isolation, fresh islets were hand-picked and transferred to RPMI-1640 medium supplemented with 0.5% FBS, 0.2% BSA and 2% penicillin/streptomycin for an overnight recovery before experiments. […] To detect in vitro human islet β-cell proliferation stimulated by PDGF-AA, human islets were exposed to 50 μM BrdU for 24 h. Afterwards, human islets were processed in a similar way as in mouse islet studies for immunostaining of insulin, glucagon, PDX1 and BrdU. β-Cell proliferation rate was determined by quantifying percentage of insulin+ cells with BrdU+. More than 50 islets per group were counted for determining cultured human islet β-cell proliferation rate.

mouse islet β-cells = experiment: In vitro mouse islet β-cell proliferation (BrdU incorporation); format: cell-based; settings: juvenile (3 week-old) mouse islets, PDGF-AA 50 ng/ml, 2 days
Description: Mouse pancreatic islets were purified as described in Chen et al. (2009) Genes Dev. 23, 975-985 and used immediately for assays described in the text. To study Ezh2 induction in cultured islets exposed to mitogens, freshly isolated islets from 2-3-week old, and 7-12-month old C57BL/6 mice were recovered and equilibrated overnight at 37° C., 5% CO2 in RPMI-1640 medium supplemented with 0.5% fetal bovine serum (FBS), 0.2% bovine albumin (BSA) and 2% penicillin/streptomycin. Afterwards, islets were distributed into microplates or dishes, and treated with recombinant human PDGF-AA, prolactin or insulin (Sigma), with or without addition of pharmacological inhibitors, including Sunitinib (Selleck), […]0126 (Sigma), LY294002 (Sigma) or U-73122 (Sigma) at the indicated concentrations. Two days later, islets were harvested for RNA or protein extraction for real-time RTPCR or western blot analyses. To detect phosphorylation of Pdgfr-α by western blot, islets were exposed to PDGF-AA (with or without indicated pharmacological inhibitors) for 90 min before islet harvesting and protein extraction. To detect in vitro islet β-cell proliferation stimulated by PDGF-AA, a final concentration of 50 μM BrdU was introduced into each culture dish 24 h before harvest, followed by standard histological processing. Immunostaining of BrdU and insulin was performed on processed islets, and β-cell proliferation rate was determined by quantifying percentage of insulin+ cells with BrdU+. […] For measuring pancreatic β-cell mass or BrdU by morphometry, three to six mice for each group were analysed. At least five sections separated by more than 300 μm (pancreases) or 50 μm (cultured islets) were immunostained and assessed for each sample. Images were analysed with an ImagePro program by observers blinded to genotype, and pancreatic β-cell mass and percentage of BrdU+β-cells were calculated as described in Chen et al. Polycomb protein Ezh2 regulates pancreatic 6-cell Ink4a/Arf expression and regeneration in diabetes mellitus. […]

[1] = test system: INSULIN+ cells in human islet grafts; experiment: Human β-cell replication in islets transplanted into NOD-scid mice with PDGF-AA infusion; format: in vivo
Source text: Exposure of islets from young human donors to purified PDGF-AA stimulates ERK-dependent signaling pathways culminating in enhanced β-cell proliferation. However, these studies have not yet shown if PDGF-AA activation is sufficient to drive regeneration of functional β-cell mass in vivo. To assess this question, equivalent numbers of size-matched islets from young (ages 1-10 years) and control adult donors (age >20 years) were transplanted into NOD-scid mice. […] PDGF-AA infusion stimulated β-cell expansion in human islet grafts. A 200% increase of INSULIN^+ cell BrdU incorporation in grafts from young human donors (n=3 independent juvenile donors, three week PDGF-AA infusion; FIG. 26B-C). By contrast, we observed no increase of BrdU incorporation by INSULIN^+ cells in adult islet grafts (n=2), as expected based on our prior observation that adult β-cells no longer express Pdgf receptor α or Pdgf receptor β. Promoting the expression of Pdgf receptor on adult islet β-cells, e.g. by promoting Wnt signaling and/or preventing DNA methylatransferase activity, will render these adult islet β-cells sensitive to PGF-AA infusion.

human islet β-cells = experiment: In vitro human islet β-cell proliferation (BrdU incorporation); format: cell-based; settings: PDGF-AA 50 ng/ml, 2 days
Source text: For islet studies, human islets were isolated either at Pittsburgh University Medical Center or the University of Alabama, Birmingham. Eight independent human islet preparations from juvenile donors at the age of 8 months, 1.0, 1.5, 2, 3, 4, 5 and 6 years, and three adult islet preparations from donors at the age of 39, 48 and 56 years were used in this study. After isolation, fresh islets were hand-picked and transferred to RPMI-1640 medium supplemented with 0.5% FBS, 0.2% BSA and 2% penicillin/streptomycin for an overnight recovery before experiments. […] To detect in vitro human islet β-cell proliferation stimulated by PDGF-AA, human islets were exposed to 50 μM BrdU for 24 h. Afterwards, human islets were processed in a similar way as in mouse islet studies for immunostaining of insulin, glucagon, PDX1 and BrdU. β-Cell proliferation rate was determined by quantifying percentage of insulin+ cells with BrdU+. More than 50 islets per group were counted for determining cultured human islet β-cell proliferation rate.

[2] = grafts from young human donors, three week PDGF-AA infusion

## PDGF-AA: recombinant human PDGF-AA, a homodimer of PDGF alpha polypeptides
EZH2; adult human islets
  EZH2 mRNA levels: not induced
EZH2; juvenile human islets
  EZH2 mRNA levels: increased
Mouse islet β-cells
  β-cell proliferation assessed by BrdU incorporation: increased β-cell proliferation in juvenile islets; also recorded: induces
[1]; adult human islet grafts, PDGF-AA infusion
  BrdU incorporation by INSULIN+ cells: no increase
[1]; [2]
  INSULIN+ cell BrdU incorporation (in words): Increase
  increase of INSULIN+ cell BrdU incorporation: 200%
Human islet β-cells; adult human islets
  β-cell proliferation: did not alter
Human islet β-cells; juvenile human islets
  β-cell BrdU incorporation compared to vehicle-exposed controls: sixfold increase
Human islet β-cells; juvenile human islets, confocal microscopy
  identity of proliferating BrdU+ cells stimulated by PDGF-AA: predominantly β-cells; also recorded: majority of PDGF-AA stimulated proliferating islet cells were PDX1+cells
